# Test results reported in US7241731B2, “Oligopeptides for promoting hair growth” (Sumitomo Electric Industries, Ltd., priority 2000, dated 2007).
# Bridge positions count the residues as written; N and C are the ends. Primed or numbered codes have the meaning given here. Ends that are not written are not given here. I, II: the chains in the order shown. * marks the point of attachment. Biotin = O=C1N[C@H]2[C@H](CS[C@H]2CCCCC(=O)*)N1; BMH′ = not defined here
# Columns and labels:
# [1] = tested on: Human keratinocytes (NHEK cell), IL-8 secretion; experiment: IL-8 secretion by NHEK cells (ELISA); format: cell-based; conditions: for secretion amount of IL-8: FIG. 8, 50 μg/ml, deletion variants of b7; for secretion amount of IL-8 / IL-8 inducing activity: 16–20 hours; for IL-8 inducing activity: Table IV, 50 μg/ml, symbols not defined
# Experimental: Human keratinocytes (NHEK cell, Clonetics, available from Sanko Jyun-yaku, Ltd.) were cultivated in a medium for proliferation (Clontics) comprising 30 μg/ml BPE, 0.1 ng/ml human EGF, 5 μg/ml insulin, 0.5 μg/ml hydrocortisone, 50 μg/ml gentamycin, and 50 ng/ml amphoterin. These cells were re-suspended at the concentration of 1×10^4 cells/ml in a medium wherein EGF, insulin, and hydrocortisone were removed from the above medium for proliferation, and then 100 μl of the suspension was placed on each well of a 96-well plate. At the same time of the plating of the cells, 5 μl of 1 mg/ml oligopeptide was added to the suspension so as to be final concentration of 50 μg/ml. After cultivation for 16–20 hours, the amount of IL-8 in the culture supernatants was measured by ELISA kit (ENDOGEN).
# [2] = tested on: antigen of about 220 kDa present in new follicle (antigen of mAb27); experiment: Skin tissues of maxilla of ICR mice incubated with test oligopeptide, Western blot with mAb 27; format: cell-based; conditions: for hair growth promoting activity (mAb 27 band stronger than control): Example 10, FIG. 4 and 5, BMH-treated oligopeptides of Example 9, 20 μCM
# Experimental: The skin tissues of maxilla of ICR mice (pregnancy 12 days) were collected by stereoscopic microscope, and left and right sides were respectively recovered from 5 mice. 5 pieces of each of the thus collected left (for control) and right (for test oligopeptides) skins from 5 mice were respectively placed on 1 nuclepore membrane (pore diameter 8 μm; diameter 13 mm), and were set in such a way that the outside upturns by observing the samples with stereoscopic microscope. 500 μl of Dulbecco's MEM/Ham F12 medium containing 1% BSA was added to 2 wells of 24 well dish. The test oligopeptide in a solvent (PBS) was added in a final concentration of 20 μCM to one well, and solvent (PBS) was added in the same amount to the other well as a control. The oligopeptides synthesized in Example 9 were used as the test oligopeptides.
# (§1) Each membrane having skin tissues thereon was launched on the solution in the above wells, and was incubated at 37° C. for 6 days. 5 pieces of tissue were recovered from the membrane into 100 μl of SDS sample buffer (SDS 0.02 g/ml, glycerol 0.2 g/ml, pH6.8), and dissolved by ultrasonic treatment. The control membrane was also treated similarly. The solution obtained by such a treatment was subjected to electrophoresis (35 mA, 1.5 hour) in SDS-PAGE (acrylamide 4–20%), and transferred to PVDF membrane, and incubated in Tris buffer containing 5% skim milk (TBST) for 1 hour. The membrane was reacted with mAb 27 (10 μg/ml in TBST) obtained in Example 2 for 1 hour, and was washed well with TBS. Then, peroxidase labeled anti-rat IgG (Amersham) (1/1000 diluted in TBST) was reacted as the second antibody, and the membrane was washed well with TBS. The intensity of the reaction of mAb 27 was examined using ECL kit (Amersham).
# The skin tissues of maxilla of ICR mice (pregnancy 12 days) were collected by stereoscopic microscope, and left and right sides were respectively recovered from 5 mice. 5 pieces of each of the thus collected left (for control) and right (for test oligopeptides) skins from 5 mice were respectively placed on 1 nuclepore membrane (pore diameter 8 μm; diameter 13 mm), and were set in such a way that the outside upturns by observing the samples with stereoscopic microscope. 500 μl of Dalbecco's MEM/Ham F12 medium containing 1% BSA was added to 2 wells of 24 well dish. The test oligopeptide in a solvent (PBS) was added in a final concentration of 20 μM to one well, and solvent (PBS) was added in the same amount to the other well as a control. The unmodified and modified oligopeptides synthesized in the above (1) were used as the test oligopeptides.
# as §1, with “Example 6” for “Example 2”
# The skin tissues of maxilla of ICR mice (pregnancy 12 days) were collected by stereoscopic microscope, and left and right sides were respectively recovered from 5 mice. […]
# [3] = tested on: transition from telogen to anagen (hair cycle); experiment: Evaluation of hair growth promoting activity by in vivo method (shaved telogen mice, hair growth score); design: species or system C57BL/6 mice; conditions: for hair restoration compared with the control group (hair growth score): topical application until 38th day, FIGS. 6 and 7; for Hair growth Activity: Table IV, symbols not defined
# Experimental: C3H and C57BL/6 mice are known to have sustained telogen for about 50 days from the 45th day after the birth to around the 95th day. Their hair cycle is easily judged based on the skin color changes, i.e., from pink in telogen to gray or black in anagen. A test for evaluating whether or not the administration the oligopeptides of the present invention promotes the transition from telogen to anagen was carried out using the mice. Seven weeks old (48 to 50-day old, female) C57BL/6 mice were purchased and hair of the back (about 3×2.5 cm^2) was carefully shaved with electric clippers for animals so as not to injure the skin, and the hair cycle was confirmed to be in telogen from the skin color. The oligopeptide solution prepared above was applied to five mice in each group, once a day and 5 days in a week in the amount of 0.2 ml until 38th day from the start of the test. The application was carried out by using a syringe without needle. Dipeptide (Ile-Lys) and tripeptide (Glu-Ile-Lys) of which N-terminal is biotinylated were mixed, and then added with the cross-linking agent to prepare a control solution.
# Plural persons (two persons) observed the mice twice a week by naked eye for evaluation, and gave a 6-graded score depending on a ratio of hair restoration area based on the hair shaved area. At the same time, photographs were taken. Hair growth scores were calculated as follows. At first, the following score was given depending on a ratio of areas where the skin color changes to gray or black in the hair shaved area; 0–20%: 1, 20–40%: 2, 40–60%: 3, 60–80%:4, 80–100%: 5. The sum of the above scores in each group was determined as the hair growth score. The maximum value of the hair growth score of each group was 50 for each of the persons for judgment, and the maximum value of hair growth score was 100 because the judgment was made by two persons.
# [4] = cited from earlier work
# [5] = Example 11, position of Cys altered, synthesized as in Example 9
molecule,measurement,setting,value
EQSCDQDE (Biotin-EQSCDQDE) [b7ΔN2],secretion amount of IL-8,[1],slightly decreased
IEQSCDQDE (Biotin-IEQSCDQDE) [b7ΔN1],secretion amount of IL-8,[1],slightly decreased
Lys-Ser-Ile-Glu-Gln-Ser-Cys-Asp-Gln-Asp-Glu (Biotin-KSIEQSCDQDE) [bk7],IL-8 inducing activity compared with oligopeptide b7,"[1]; FIG. 9, Examples 17 and 18",almost the same IL-8 inducing activity as that of oligopeptide b7
QSCDQDE (Biotin-QSCDQDE) [b7ΔN3],secretion amount of IL-8,[1],slightly decreased
SICEQSD [SEQ ID NO:6],hair growth promoting activity,[2]; [5],showed a hair growth promoting activity
SICEQSDQDE [oligopeptide (C)],hair growth promoting activity (mAb 27 band stronger than control),[2]; 6 days,have a hair growth promoting activity
SIECQSD [SEQ ID NO:5],hair growth promoting activity,[2]; [5],showed a hair growth promoting activity
SIECQSDQ [oligopeptide (D)],hair growth promoting activity (mAb 27 band stronger than control),[2]; 6 days,had a hair growth promoting activity
SIECQSDQDE [oligopeptide (B)],hair growth promoting activity (mAb 27 band stronger than control),[2]; 6 days,have a hair growth promoting activity
SIEQCSD [SEQ ID NO:4],hair growth promoting activity,[2]; [5],showed a hair growth promoting activity
SIEQCSDQDE [oligopeptide (A)],hair growth promoting activity (mAb 27 band stronger than control),[2]; 6 days,have a hair growth promoting activity
SIEQS (Biotin-SIEQS) [b7ΔC5],secretion amount of IL-8,[1],significantly decreased
SIEQSC (Biotin-SIEQSC; also: Cys sulfhydryl blocked (group not given here)) [b7ΔC4],secretion amount of IL-8,[1],maintained
SIEQSCD (Biotin-SIEQSCD; also: Cys sulfhydryl blocked (group not given here)) [b7ΔC3],secretion amount of IL-8,[1],maintained
SIEQSCDQ (Biotin-SIEQSCDQ; also: Cys sulfhydryl blocked (group not given here)) [b7ΔC2],secretion amount of IL-8,[1],maintained
SIEQSCDQD (Biotin-SIEQSCDQD; also: sulfhydryl blocked) [b7ΔC1],secretion amount of IL-8,[1],maintained
SIEQSCDQDE [SEQ ID NO:84],hair growth promoting activity,[3]; conclusion of Example 15,has hair growth promoting activity
b7: modified oligopeptide having biotin at the N-terminus of Ser-Ile-Glu-Gln-Ser-Cys-Asp-Gln-Asp-Glu (SEQ ID NO:84) (Biotin-SIEQSCDQDE),hair restoration compared with the control group (hair growth score),[3]; C57BL/6 mice,hair restoration was promoted until about 30 days from the start of the test
same,Hair growth Activity,[3],◯
same,IL-8 inducing activity,[1],⊚
"heterodimer oligopeptide: heterodimer made with BMH from two different oligopeptides; b464 names SEQ ID NO:87 and SEQ ID NO:4, b490 oligopeptides (A) and (B) (chain 1 SIEQSCD; chain 2 SIEQCSD; linker I:6-II:5 via BMH′ (inferred))",hair growth promoting activity (mAb 27 band stronger than control),[2]; 6 days,had also a hair growth promoting activity
"ss7: S-S bridged oligopeptide prepared by reacting the oligopeptide (SEQ ID NO:84 series) with BMH; elsewhere called S-S bridged and biotinylated (SIEQSCDQDE; also: BMH cross-linked dimer, Cys attachment not placed, biotinylated, site not given here)",hair growth promoting activity,[2]; Example 16,has hair growth promoting activity
same,band of mAb27 antigen versus control,"[2]; Example 16, FIG. 13, 20 μM, 6 days",a stronger band was detected
same,transition to anagen earlier than the control group,"[3]; C57BL/6 mice, 0.2 ml of oligopeptide solution (0.15 mg/ml, 50% ethanol/PBS) once a day, 5 days in a week",≥ 7 days
same,hair restoration compared with the control group (hair growth score),[3]; C57BL/6 mice,hair restoration was promoted at any time until the hair grew and restored almost completely
same,Hair growth Activity,[3],⊚
same,IL-8 inducing activity,[1],⊚
"Native mammalian epimorphin: protein of 277 to 289 amino acids promoting the morphogenesis of epithelial tissue (protein, UniProt P32856 1-288, looked up) Syntaxin-2: MRDRLPDLTACRKNDDGDTVVVVEKDHFMDDFFHQVEEIRNSIDKITQYVEEVKKNHSIILSAPNPEGKIKEELEDLNKEIKKTANKIRAKLKAIEQSFDQDESGNRTSVDLRIRRTQHSVLSRKFVEAMAEYNEAQTLFRERSKGRIQRQLEITGRTTTDDELEEMLESGKPSIFTSDIISDSQITRQALNEIESRHKDIMKLETSIRELHEMFMDMAMFVETQGEMINNIERNVMNATDYVEHAKEETKKAIKYQSKARRKKWIIIAVSVVLVAIIALIIGLSVGK",solubility in aqueous media such as saline,[4],almost insoluble
